From patent US7691418B2, “Composition for inhibiting or preventing the formation of a biofilm” (Oystershell NV, priority 2004, dated 2010)

Key:
[1] = system: glycosyltransferase (GTF); dextran sucrase of Leuconostoc mesenteroides; assay: GTF enzyme assay: insoluble dextran formation followed by turbidity at 690 nm; format: biochemical; conditions: positive controls: TRIS 2, 10, 100 mM; DJM 10 mM
S. mutans biofilm = S. mutans biofilm formation on hydroxyl apatite discs in Modified Robbins Devices, SYTO 9 fluorescence; format: cell-based, Streptococcus mutans; conditions: FIG. 12; 5 μg/ml (sub-MIC)
From the text: A first example illustrates the influence of extracts according to the invention on the development of a S. mutans biofilm. Hereby a model system for the study of biofilm formation on discs was used. The system comprises the irrigation of a growing medium and micro-organisms on discs and to develop the formation of microbial biofilms thereon. The system permits to compare biomasses of biofilms which were and were not exposed to plant extracts according to the invention. Since teeth comprise hydroxyl apatite (HAP), discs comprising HAP (Clarkson Chromatography Products, South Williamsport, Pa., USA) were used for each experiment. […] Before starting biofilm experiments, the minimum inhibitory concentration (MIC value) was determined for each plant extract. […] Quantification of biofilm formation was done by putting the HAP discs in a microtiter plate, followed by staining the discs with a SYTO®9 solution, that stains the DNA of living bacteria as well as of dead bacteria. After an incubation period of approximately 15 minutes the microtiter plate was scanned in an automatic microtiter plate reader (Wallac 1420 Multilabel Counter (Victor^2™; Perkin Elmer Life and Analytical Sciences, Boston, Mass., USA) able to measure absorption as well as fluorescence and luminescence.

absorption of formed dextran with known GTF inhibitors [1] | Structure (SMILES) | average fluorescence values compared with positive control BHIS (S. mutans biofilm)
decrease in absorption | OC[C@H]1NC[C@H](O)[C@@H](O)[C@@H]1O [DJM, 1-deoxynojirimycine] | 
decrease in absorption | NC(CO)(CO)CO [TRIS] | 
 | Cc1cc(O)c2c(c1)C(=O)c1cc(O)cc(O)c1C2=O [emodin] | significantly lower that those of the positive control BHIS
